Measured values from patent publication US8507538B2, “Selective heterocyclic sphingosine 1 phosphate receptor modulators” (Receptos, Inc., priority 2009, dated 2013).

The molecules below were run against S1P1/EDG1 (Homo sapiens, UniProt P21453) (assay: S1P1 CRE-bla CHOK1 reporter assay (inhibition of Forskolin induced cAMP)). Conditions: agonist activity range, Table 2; read-out: S1P1 ACTIVITY.
Format: cell-based
How it was run: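 Stable CRE-bla CHO-K1 clone expressing human S1P1, serum-starved (0.5% stripped serum) 18 h, then treated with compound (10-point curve) plus 2 μM forskolin for 4 h at 37 °C. β-lactamase FRET ratio (458/522 nm) read after 2 h substrate loading; EC50 for inhibition of forskolin-induced cAMP by non-linear regression.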

Sequence of S1P1/EDG1 (P21453 whole entry): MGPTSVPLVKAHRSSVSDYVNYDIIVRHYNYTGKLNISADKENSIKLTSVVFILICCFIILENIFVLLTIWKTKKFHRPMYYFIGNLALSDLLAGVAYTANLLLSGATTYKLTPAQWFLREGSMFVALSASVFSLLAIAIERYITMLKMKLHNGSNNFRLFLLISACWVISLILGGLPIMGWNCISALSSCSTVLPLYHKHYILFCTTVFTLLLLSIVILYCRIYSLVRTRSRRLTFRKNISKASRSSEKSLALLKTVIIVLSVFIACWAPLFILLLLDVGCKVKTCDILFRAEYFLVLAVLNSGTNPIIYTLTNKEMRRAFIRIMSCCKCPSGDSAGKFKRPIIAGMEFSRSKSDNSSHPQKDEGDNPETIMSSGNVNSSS

`COC(=O)CC1CCN(CCS(=O)(=O)N[C@H]2CCc3c(-c4cnc(-c5ccc(OC(C)C)c(C#N)c5)s4)cccc32)CC1` [Compound 147] and `CC(C)Oc1ccc(-c2ncc(-c3cccc4c3CC[C@@H]4NS(=O)(=O)CCN3CCC(CC(=O)O)CC3)s2)cc1C#N` [Compound 148] fall in the same range of EC50: 0.5 to 5 nM for the first, 0.5 to 5 nM for the second.

First: CC(C)Oc1ccc(-c2ncc(-c3cccc4c3CC[C@@H]4NS(=O)(=O)CCN3CCC(CO)CC3)s2)cc1C#N [Compound 149]
Second: CC(C)Oc1ccc(-c2ncc(-c3cccc4c3CC[C@@H]4NS(=O)(=O)CCN3CCC(N(C)C)CC3)s2)cc1C#N [Compound 153]
The EC50 of the first is lower: 0.5 to 5 nM for the first, greater than 5 nM for the second.

Compared with `CC(C)Oc1ccc(-c2ncc(-c3cccc4c3CC[C@@H]4NS(=O)(=O)CCN3CC(O)C3)s2)cc1C#N` [Compound 150], `CC(C)Oc1ccc(-c2ncc(-c3cccc4c3CC[C@@H]4NS(=O)(=O)CC(=O)N3CC(O)C3)s2)cc1C#N` [Compound 163] is lower in EC50: 0.5 to 5 nM for the first, 0.05 to 0.5 nM for the second.

Compared with `CC(C)Oc1ccc(-c2ncc(-c3cccc4c3CC[C@@H]4NS(=O)(=O)CCN3CCNCC3)s2)cc1C#N` [Compound 151], `CC(C)Oc1ccc(-c2ncc(-c3cccc4c3CC[C@@H]4NS(=O)(=O)CCO)s2)cc1C#N` [Compound 165, (S)-N-(4-(2-(3-cyano-4-isopropoxyphenyl)thiazol-5-yl)-2,3-dihydro-1H-inden-1-yl)-2-hydroxyethanesulfonamide] is lower in EC50: greater than 5 nM for the first, 0.5 to 5 nM for the second.

Compared with `COC(=O)CS(=O)(=O)N[C@H]1CCc2c(-c3cnc(-c4ccc(OC(C)C)c(C#N)c4)s3)cccc21` [Compound 155, (S)-methyl 2-(N-(4-(2-(3-cyano-4-isopropoxyphenyl)thiazol-5-yl)-2,3-dihydro-1H-inden-1-yl)sulfamoyl)acetate], `COC(=O)CCS(=O)(=O)N[C@H]1CCc2c(-c3cnc(-c4ccc(OC(C)C)c(C#N)c4)s3)cccc21` [Compound 156] is lower in EC50: 0.5 to 5 nM for the first, 0.05 to 0.5 nM for the second. The second is the more potent here.

Compared with `CC(C)Oc1ccc(-c2ncc(-c3cccc4c3CC[C@@H]4NS(=O)(=O)CC(=O)O)s2)cc1C#N` [Compound 159, (S)-2-(N-(4-(2-(3-cyano-4-isopropoxyphenyl)thiazol-5-yl)-2,3-dihydro-1H-inden-1-yl)sulfamoyl)acetic acid], `CC(C)Oc1ccc(-c2ncc(-c3cccc4c3CC[C@@H]4NS(=O)(=O)CCC(=O)O)s2)cc1C#N` [Compound 160] is lower in EC50: 0.05 to 0.5 nM for the first, less than 0.05 nM for the second. The second is the more potent here.

`CC(C)Oc1ccc(-c2ncc(-c3cccc4c3CC[C@@H]4NS(=O)(=O)CCC(=O)O)s2)cc1C#N` [Compound 161] and `CC(C)Oc1ccc(-c2ncc(-c3cccc4c3CC[C@@H]4NS(N)(=O)=O)s2)cc1C#N` [Compound 167, (S)-N-(4-(2-(3-cyano-4-isopropoxyphenyl)thiazol-5-yl)-2,3-dihydro-1H -inden-1-yl)sulfamide] fall in the same range of EC50: 0.05 to 0.5 nM for the first, 0.05 to 0.5 nM for the second.

Compared with `CC(C)Oc1ccc(-c2ncc(-c3cccc4c3CC[C@@H]4NC(=O)N(C)C)s2)cc1C#N` [Compound 168], `CC(C)Oc1ccc(-c2ncc(-c3cccc4c3CC[C@@H]4NC(=O)N3CC[C@H](N(C)C)C3)s2)cc1C#N` [Compound 182] is higher in EC50: 0.05 to 0.5 nM for the first, 0.5 to 5 nM for the second.

`CC(C)Oc1ccc(-c2ncc(-c3cccc4c3CC[C@@H]4NC(=O)N(C)C)s2)cc1C#N` [Compound 169] and `CC(C)Oc1ccc(-c2ncc(-c3cccc4c3CC[C@@H]4NC(=O)N3CC[C@@H](N(C)C)C3)s2)cc1C#N` [Compound 183] fall in the same range of EC50: 0.5 to 5 nM for the first, 0.5 to 5 nM for the second.

Compared with `CC(C)Oc1ccc(-c2ncc(-c3cccc4c3CC[C@@H]4NC(=O)N3CC(O)C3)s2)cc1C#N` [Compound 170], `CC(C)Oc1ccc(-c2ncc(-c3cccc4c3CC[C@@H]4NC(=O)N3CC[C@@H](O)C3)s2)cc1C#N` [Compound 174] is lower in EC50: 0.5 to 5 nM for the first, 0.05 to 0.5 nM for the second.

Compared with `CC(C)Oc1ccc(-c2ncc(-c3cccc4c3CC[C@@H]4NC(=O)N3CC(O)C3)s2)cc1C#N` [Compound 171], `CC(C)Oc1ccc(-c2ncc(-c3cccc4c3CC[C@@H]4NC(=O)N3CC[C@H](O)C3)s2)cc1C#N` [Compound 175] is higher in EC50: 0.05 to 0.5 nM for the first, 0.5 to 5 nM for the second. The first is the more potent here.

`CC(C)Oc1ccc(-c2ncc(-c3cccc4c3CC[C@@H]4NC(=O)N3CCCC3)s2)cc1C#N` [Compound 173, (S)-N-(4-(2-(3-cyano-4-isopropoxyphenyl)thiazol-5-yl)-2,3-dihydro-1H-inden-1-yl)pyrrolidine-1-carboxamide] and `CC(C)Oc1ccc(-c2ncc(-c3cccc4c3CC[C@@H]4NC(=O)N3CCOCC3)s2)cc1C#N` [Compound 187] fall in the same range of EC50: 0.5 to 5 nM for the first, 0.5 to 5 nM for the second.

First: CC(C)Oc1ccc(-c2ncc(-c3cccc4c3CC[C@@H]4NC(=O)N3CC[C@@H](O)C3)s2)cc1C#N [Compound 176]
Second: CC(C)Oc1ccc(-c2ncc(-c3cccc4c3CC[C@@H]4NC(=O)N3CC[C@H](O)C3)s2)cc1C#N [Compound 177]
The EC50 of the first is higher: 0.5 to 5 nM for the first, 0.05 to 0.5 nM for the second. The second is the more potent here.

Compared with `CC(C)Oc1ccc(-c2ncc(-c3cccc4c3CC[C@@H]4NC(=O)N3CC[C@@H](N)C3)s2)cc1C#N` [Compound 178], `CC(C)Oc1ccc(-c2ncc(-c3cccc4c3CC[C@@H]4NC(=O)N3CC[C@H](N)C3)s2)cc1C#N` [Compound 179] is higher in EC50: 0.05 to 0.5 nM for the first, 0.5 to 5 nM for the second.

`CC(C)Oc1ccc(-c2ncc(-c3cccc4c3CC[C@@H]4NC(=O)N3CC[C@H](N)C3)s2)cc1C#N` [Compound 180] and `CC(C)Oc1ccc(-c2ncc(-c3cccc4c3CC[C@@H]4NC(=O)N3CC[C@@H](N)C3)s2)cc1C#N` [Compound 181] cannot be ordered by EC50: greater than 5 nM for the first, greater than 5 nM for the second.

`CC(C)Oc1ccc(-c2ncc(-c3cccc4c3CC[C@@H]4NC(=O)N3CC[C@H](N(C)C)C3)s2)cc1C#N` [Compound 184] and `CC(C)Oc1ccc(-c2ncc(-c3cccc4c3CC[C@@H]4NC(=O)N3CC[C@@H](N(C)C)C3)s2)cc1C#N` [Compound 185] cannot be ordered by EC50: greater than 5 nM for the first, greater than 5 nM for the second.

`CC(C)Oc1ccc(-c2ncc(-c3cccc4c3CC[C@@H]4NC(=O)N3CCNCC3)s2)cc1C#N` [Compound 188] and `CC(C)Oc1ccc(-c2ncc(-c3cccc4c3CC[C@@H]4NC(=O)N3CCN(C)CC3)s2)cc1C#N` [Compound 190] fall in the same range of EC50: 0.5 to 5 nM for the first, 0.5 to 5 nM for the second.

`CC(C)Oc1ccc(-c2ncc(-c3cccc4c3CC[C@@H]4NC(=O)N3CCNCC3)s2)cc1C#N` [Compound 189] and `CC(C)Oc1ccc(-c2ncc(-c3cccc4c3CC[C@@H]4NC(=O)N3CCN(C)CC3)s2)cc1C#N` [Compound 191] cannot be ordered by EC50: greater than 5 nM for the first, greater than 5 nM for the second.

First: CC(C)Oc1ccc(-c2ncc(-c3cccc4c3CC[C@@H]4NC(=O)N3CCC(N(C)C)CC3)s2)cc1C#N [Compound 192]
Second: CC(C)Oc1ccc(-c2ncc(-c3cccc4c3CC[C@@H]4NC(=O)N3CCC(O)CC3)s2)cc1C#N [Compound 202]
The EC50 of the first is higher: greater than 5 nM for the first, 0.5 to 5 nM for the second. The second is the more potent here.

First: CC(C)Oc1ccc(-c2ncc(-c3cccc4c3CC[C@@H]4NC(=O)N3CCC(CO)CC3)s2)cc1C#N [Compound 194]
Second: CC(C)Oc1ccc(-c2ncc(-c3cccc4c3CC[C@@H]4NC(=O)N3CCC(CC(=O)O)CC3)s2)cc1C#N [Compound 200]
The EC50 of the first is higher: 0.5 to 5 nM for the first, 0.05 to 0.5 nM for the second. The second is the more potent here.

`CC(C)Oc1ccc(-c2ncc(-c3cccc4c3CC[C@@H]4NC(=O)N3CCC[C@H](O)C3)s2)cc1C#N` [Compound 196] and `COC(=O)CC1CCN(C(=O)N[C@H]2CCc3c(-c4cnc(-c5ccc(OC(C)C)c(C#N)c5)s4)cccc32)CC1` [Compound 204] fall in the same range of EC50: 0.5 to 5 nM for the first, 0.5 to 5 nM for the second.

`CC(C)Oc1ccc(-c2ncc(-c3cccc4c3CC[C@@H]4NC(=O)N3CCC[C@H](O)C3)s2)cc1C#N` [Compound 197] and `CC(C)Oc1ccc(-c2ncc(-c3cccc4c3CCC4N3CC[C@@H](O)C3)s2)cc1C#N` (stereo partly shown) [Compound 209] fall in the same range of EC50: 0.5 to 5 nM for the first, 0.5 to 5 nM for the second.

First: CC(C)Oc1ccc(-c2ncc(-c3cccc4c3CC[C@@H]4NC(=O)N3CCC[C@H](O)C3)s2)cc1C#N [Compound 198]
Second: CC(C)Oc1ccc(-c2ncc(-c3cccc4c3CCC4N3CC[C@H](O)C3)s2)cc1C#N (stereo partly shown) [Compound 210]
The EC50 of the first is lower: 0.05 to 0.5 nM for the first, 0.5 to 5 nM for the second.

First: CC(C)Oc1ccc(-c2ncc(-c3cccc4c3CC[C@@H]4NC(=O)N3CCC[C@H](O)C3)s2)cc1C#N [Compound 199]
Second: CC(C)Oc1ccc(-c2ncc(-c3cccc4c3CCC4N3CC(O)C3)s2)cc1C#N (stereo not shown) [Compound 207, 5-(5-(1-(3-hydroxyazetidin-1-yl)-2,3-dihydro-1H-inden-4-yl)thiazol-2-yl)-2-isopropoxybenzonitrile]
The EC50 of the first is lower: 0.05 to 0.5 nM for the first, 0.5 to 5 nM for the second. The first is the more potent here.

Compared with `CC(C)Oc1ccc(-c2ncc(-c3cccc4c3CC[C@@H]4N3CCC3)s2)cc1C#N` [Compound 206], `CC(C)Oc1ccc(-c2ncc(-c3cccc4c3CCC4N3CCCC3)s2)cc1C#N` (stereo not shown) [Compound 208] is higher in EC50: 0.05 to 0.5 nM for the first, 0.5 to 5 nM for the second. The first is the more potent here.

First: CC(C)Oc1ccc(-c2ncc(-c3cccc4c3CCC4N3CC[C@H](N)C3)s2)cc1C#N (stereo partly shown) [Compound 211]
Second: CC(C)Oc1ccc(-c2ncc(-c3cccc4c3CCC4N3CC[C@@H](N)C3)s2)cc1C#N (stereo partly shown) [Compound 212]
The EC50 of the first is lower: 0.5 to 5 nM for the first, greater than 5 nM for the second.

`CC(C)Oc1ccc(-c2ncc(-c3cccc4c3CCC4N3CCCCC3)s2)cc1C#N` (stereo not shown) [Compound 213] and `CC(C)Oc1ccc(-c2ncc(-c3cccc4c3CCC4N3CCOCC3)s2)cc1C#N` (stereo not shown) [Compound 214] fall in the same range of EC50: 0.5 to 5 nM for the first, 0.5 to 5 nM for the second.

`CC(C)Oc1ccc(-c2ncc(-c3cccc4c3CCC4N3CCNCC3)s2)cc1C#N` (stereo not shown) [Compound 215] and `CC(C)Oc1ccc(-c2ncc(-c3cccc4c3CCC4N3CCN(C)CC3)s2)cc1C#N` (stereo not shown) [Compound 216] fall in the same range of EC50: 0.5 to 5 nM for the first, 0.5 to 5 nM for the second.

`CC(C)Oc1ccc(-c2ncc(-c3cccc4c3CCC4NC3CCOCC3)s2)cc1C#N` (stereo not shown) [Compound 217] and `CC(C)Oc1ccc(-c2ncc(-c3cccc4c3CCC4NC3CCCCC3)s2)cc1C#N` (stereo not shown) [Compound 218] cannot be ordered by EC50: greater than 5 nM for the first, greater than 5 nM for the second.

`CNS(=O)(=O)CCNC1CCc2c(-c3cnc(-c4ccc(OC(C)C)c(C#N)c4)s3)cccc21` (stereo not shown) [Compound 219] and `CC(C)Oc1ccc(-c2ncc(-c3cccc4c3CC[C@@H]4NCCS(C)(=O)=O)s2)cc1C#N` [Compound 221, (S)-2-isopropoxy-5-(5-(1-((2-(methylsulfonyl)ethyl)amino)-2,3-dihydro-1H-inden-4-yl)thiazol-2-yl)benzonitrile] fall in the same range of EC50: 0.05 to 0.5 nM for the first, 0.05 to 0.5 nM for the second.

`CC(C)Oc1ccc(-c2cnc(-c3cccc4c3CCC4O)s2)cc1C#N` (stereo not shown) [Compound 222, 5-(2-(1-hydroxy-2,3-dihydro-1H-inden-4-yl)thiazol-5-yl)-2-isopropoxy-benzonitrile] was tested, and the EC50 was greater than 5 nM.
